Measurements taken from patent US7598397B2, “Sulfonamide peri-substituted bicyclics for occlusive artery disease” (deCODE genetics ehf, priority 2004, dated 2009).

Each compound was assayed against T1, prostanoid EP3 receptors (Homo sapiens, UniProt P43115) (assay: binding on prostanoid EP3 receptors (method of Abramovitz et al.)). Conditions: read-out: Activity (EP3 receptor binding, IC50 class).
T1 sequence (P43115 1-390): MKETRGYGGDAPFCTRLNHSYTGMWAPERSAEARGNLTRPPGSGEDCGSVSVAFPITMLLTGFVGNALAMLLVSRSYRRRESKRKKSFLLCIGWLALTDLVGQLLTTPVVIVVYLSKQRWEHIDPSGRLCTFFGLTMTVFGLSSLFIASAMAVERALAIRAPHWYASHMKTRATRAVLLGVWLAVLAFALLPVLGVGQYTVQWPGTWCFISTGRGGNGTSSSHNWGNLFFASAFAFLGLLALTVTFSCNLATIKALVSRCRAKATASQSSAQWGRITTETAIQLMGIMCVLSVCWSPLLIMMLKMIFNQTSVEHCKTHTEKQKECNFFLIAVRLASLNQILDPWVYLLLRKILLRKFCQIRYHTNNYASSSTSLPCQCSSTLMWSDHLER
Experimental: The compounds of the invention were assayed for their binding on prostanoid EP3 receptors according to the method of Abramovitz et al. [Bioch. Biophys.
Work on `O=C(COc1cccc2c1N(Cc1ccc(Cl)cc1Cl)C(=O)CO2)NS(=O)(=O)c1cccs1` [Compound P040] yielded an IC50 of under 1 µM. Compound `CC1C(=O)N(Cc2ccc(Cl)cc2Cl)c2c(C=CC(=O)NS(=O)(=O)c3cc(Cl)c(Cl)s3)cccc21` (stereo not drawn) [Compound P107] has an IC50 of under 1 µM. For `CC1C(=O)N(Cc2ccc(Cl)cc2Cl)c2c(C=CC(=O)NS(=O)(=O)c3cccs3)cccc21` (stereo not drawn) [Compound P058], the IC50 was under 1 µM. Work on `CN1C(=O)C(S(=O)(=O)c2ccc3ccccc3c2)c2c(OCC(=O)NS(=O)(=O)c3cc(Cl)c(Cl)s3)cccc21` (stereo not drawn) [Compound P248] yielded an IC50 of under 1 µM. `Cn1cc(/C=C/C(=O)NS(=O)(=O)c2ccc(F)c(F)c2)c2c(Oc3ccc4ccccc4c3)cccc21` [Compound P334] was tested, and the IC50 was under 1 µM. For `Cn1cc(C=CC(=O)NS(=O)(=O)c2cc(Cl)c(Cl)s2)c2c(Oc3ccc(F)c(Cl)c3)cccc21` [Compound P330], the IC50 was under 1 µM. `CC12CCCC(C=CC(=O)NS(=O)(=O)c3cc(F)c(F)cc3F)=C1N(Cc1cccc(Cl)c1Cl)C(=O)C2` (stereo not drawn) [Compound P296] showed an IC50 of under 1 µM. Work on `Cc1cn(Cc2cccc(OC(F)(F)F)c2)c2c(/C=C/C(=O)NS(=O)(=O)c3cc(Cl)c(Cl)s3)cccc12` [Compound P140] yielded an IC50 of under 1 µM. In the case of `O=C(C=Cc1cccc2ccn(C(=O)c3ccc4ccccc4c3)c12)NS(=O)(=O)c1cccs1` [Compound P005], the IC50 is reported as under 1 µM. With `O=C(CCc1cccc2c1N(Cc1ccc3ccccc3c1)C(=O)C21OCCO1)NS(=O)(=O)c1cccs1` [Compound P097] the IC50 was under 1 µM. In the case of `O=C(COc1cccc2[nH]cc(S(=O)(=O)c3ccc4ccccc4c3)c12)NS(=O)(=O)c1cc(F)c(F)cc1F` [Compound P237], the IC50 is reported as under 1 µM. `O=C(COc1cccc2[nH]cc(Sc3ccc4ccccc4c3)c12)NS(=O)(=O)c1cccs1` [Compound P166] was tested, and the IC50 was under 1 µM. In the case of `O=C(COc1cccc2[nH]cc(Sc3nc4ccccc4o3)c12)NS(=O)(=O)c1cc(Cl)c(Cl)s1` [Compound P181], the IC50 is reported as under 1 µM. Work on `Cc1ccc(S(=O)(=O)NC(=O)OCc2cccc3ccn(Cc4ccc5ccccc5c4)c23)cc1` [Compound P038] yielded an IC50 of under 1 µM. For `O=C(C=Cc1cccc2c1N(Cc1ccc3ccccc3c1)C(=O)C2=O)NS(=O)(=O)c1cc(Cl)c(Cl)s1` [Compound P115], the IC50 was under 1 µM. `Cc1cn(Cc2ccc3ccccc3n2)c2c(/C=C/C(=O)NS(=O)(=O)c3cc(Cl)c(Cl)s3)cccc12` [Compound P146] gave an IC50 of under 1 µM. Work on `Cc1ccc(CN2C(=O)COc3cccc(OCC(=O)NS(=O)(=O)c4cccs4)c32)cc1` [Compound P023] yielded an IC50 of 1 to 10 µM. `O=C(COc1cccc2[nH]cc(S(=O)(=O)c3ccc(Cl)c(Cl)c3)c12)NS(=O)(=O)c1cc(Cl)c(Cl)s1` [Compound P204] was tested, and the IC50 was under 1 µM. In the case of `Cn1cc(C=CC(=O)NS(=O)(=O)c2cccc(F)c2)c2c(Oc3ccc4ccccc4c3)cccc21` [Compound P363], the IC50 is reported as under 1 µM. With `CC12CCCC(C=CC(=O)NS(=O)(=O)c3cc(Cl)c(Cl)s3)=C1N(Cc1cccc(F)c1)C(=O)C2` (stereo not drawn) [Compound P262] the IC50 was under 1 µM. Compound `Cn1c(Sc2c[nH]c3cccc(OCC(=O)NS(=O)(=O)c4cc(Cl)c(Cl)s4)c23)nc2ccccc21` [Compound P195] has an IC50 of under 1 µM. `O=C(C=Cc1cccc2c1C(Nc1ccc3ccccc3c1)C(=O)N2)NS(=O)(=O)c1cc(Cl)c(Cl)s1` (stereo not drawn) [Compound P241] was tested, and the IC50 was under 1 µM. Work on `Cc1cn(CCC(=O)NS(=O)(=O)c2ccc(F)c(F)c2)c2c(Oc3ccc(Cl)cc3Cl)cc(F)cc12` [Compound P383] yielded an IC50 of under 1 µM. With `CC12CCCC(/C=C/C(=O)NS(=O)(=O)c3cc(Cl)c(Cl)s3)=C1N(Cc1ccc(F)c(F)c1)C(=O)C2` (stereo not drawn) [Compound P264] the IC50 was under 1 µM. `Cc1cn(CCC(=O)NS(=O)(=O)c2cc(F)c(F)cc2F)c2c(Oc3ccc4ccccc4c3)cc(F)cc12` [Compound P378, 2,4,5-Trifluoro-N-{3-[5-fluoro-3-methyl-7-(naphthalen-2-yloxy)-indol-1-yl]-propionyl}-benzenesulfonamide] gave an IC50 of under 1 µM. For `Cc1noc(C)c1Cn1cc(C)c2cc(F)cc(C=CC(=O)NS(=O)(=O)c3cc(F)c(F)cc3F)c21` [Compound P370], the IC50 was under 1 µM. `O=C(C=Cc1cccc2c1C(Nc1ccc(Cl)cc1Cl)C(=O)N2)NS(=O)(=O)c1cc(Cl)c(Cl)s1` (stereo not drawn) [Compound P287] showed an IC50 of under 1 µM. For `Cn1cc(C=CC(=O)NS(=O)(=O)c2cc(F)c(F)cc2F)c2c(Oc3ccc4ncccc4c3)cccc21` [Compound P377], the IC50 was under 1 µM. Compound `Cc1cn(Cc2cccc(C(F)(F)F)c2)c2c(/C=C/C(=O)NS(=O)(=O)c3cc(Cl)c(Cl)s3)cccc12` [Compound P119] has an IC50 of under 1 µM. With `CC(=O)Nc1ccc(S(=O)(=O)c2c[nH]c3cccc(OCC(=O)NS(=O)(=O)c4cc(Cl)c(Cl)s4)c23)cc1` [Compound P235] the IC50 was under 1 µM. Compound `COCc1cn(Cc2ccc(Cl)cc2Cl)c2c(C=CC(=O)NS(=O)(=O)c3cccs3)cccc12` [Compound P070] has an IC50 of under 1 µM. Compound `CN1C(=O)C(C)(Cc2ccc3ccccc3c2)c2c(C=CC(=O)NS(=O)(=O)c3cc(Cl)c(Cl)s3)cccc21` (stereo not drawn) [Compound P148] has an IC50 of under 1 µM. `Cc1cn(Cc2ccc(Cl)cc2Cl)c2c(C=CC(=O)NS(=O)(=O)c3ccc(F)c(F)c3)cc(F)cc12` [Compound P335] showed an IC50 of under 1 µM. Work on `O=C(COc1cccc2[nH]cc(Sc3ccc(Cl)cc3Cl)c12)NS(=O)(=O)c1cc(Cl)c(Cl)s1` [Compound P205] yielded an IC50 of under 1 µM. `O=C(COc1cccc2oc(=O)n(Cc3ccc(Cl)c(Cl)c3)c12)NS(=O)(=O)c1cccs1` [Compound P051] showed an IC50 of under 1 µM. Work on `O=C(COc1cccc2c1N(Cc1ccccc1C(F)(F)F)C(=O)CO2)NS(=O)(=O)c1cccs1` [Compound P031] yielded an IC50 of 1 to 10 µM. `CN1C(=O)C(Nc2ccc(F)c(F)c2)c2c(C=CC(=O)NS(=O)(=O)c3cc(Cl)c(Cl)s3)cccc21` (stereo not drawn) [Compound P272] showed an IC50 of under 1 µM. In the case of `O=C(COc1cccc2[nH]cc(S(=O)(=O)c3nc[nH]n3)c12)NS(=O)(=O)c1cc(Cl)c(Cl)s1` [Compound P240], the IC50 is reported as under 1 µM. `CC12CCCC(C=CC(=O)NS(=O)(=O)c3cc(Cl)cc(Cl)c3)=C1N(Cc1ccc(Cl)cc1Cl)C(=O)C2` (stereo not drawn) [Compound P280] showed an IC50 of under 1 µM. For `Cc1ccc(Sc2c[nH]c3cccc(OCC(=O)NS(=O)(=O)c4cc(Cl)c(Cl)s4)c23)c(C)c1` [Compound P165], the IC50 was under 1 µM. `Cc1cn(Cc2cn3ccccc3n2)c2c(C=CC(=O)NS(=O)(=O)c3cc(F)c(F)cc3F)cc(F)cc12` [Compound P402] was tested, and the IC50 was under 1 µM. `O=C(COc1cccc2[nH]cc(Sc3ccc4ccccc4c3)c12)NS(=O)(=O)C(F)(F)F` [Compound P243] was tested, and the IC50 was under 1 µM. For `CC1(O)C(=O)N(Cc2ccc(Cl)cc2Cl)c2c(C=CC(=O)NS(=O)(=O)c3cc(Cl)c(Cl)s3)cccc21` (stereo not drawn) [Compound P133], the IC50 was under 1 µM. Compound `O=C(C=Cc1cccc2c1N(Cc1ccc3ccccc3c1)C(=O)C2)NS(=O)(=O)c1cccs1` [Compound P217] has an IC50 of under 1 µM. Work on `O=C(C=Cc1cccc2c1N(Cc1ccc3ccccc3c1)C(=O)C21OCCO1)NS(=O)(=O)c1cc(Cl)c(Cl)s1` [Compound P114] yielded an IC50 of under 1 µM. `CC(=O)CC1(O)C(=O)N(Cc2ccc(Cl)cc2Cl)c2c(C=CC(=O)NS(=O)(=O)c3cc(Cl)c(Cl)s3)cccc21` (stereo not drawn) [Compound P128] gave an IC50 of under 1 µM. For `O=C(COc1cccc2c1N(Cc1ccc(F)cc1)C(=O)CO2)NS(=O)(=O)c1cccs1` [Compound P024], the IC50 was over 10 µM. `Cc1cn(CCC(=O)NS(=O)(=O)c2cccc(Cl)c2)c2c(Oc3ccc4ccccc4c3)cc(F)cc12` [Compound P381] showed an IC50 of under 1 µM. In the case of `COc1ccc(S(=O)(=O)NC(=O)COc2cccc3[nH]cc(S(=O)(=O)c4ccc5ccccc5c4)c23)cc1` [Compound P193], the IC50 is reported as under 1 µM. Compound `Cc1cn(Cc2ccc3ccccc3c2)c2c(/C=C/C(=O)N(C)S(=O)(=O)c3cc(Cl)c(Cl)s3)cc(F)cc12` [Compound P076] has an IC50 of under 1 µM. `Cc1cn(Cc2ccccc2Cl)c2c(/C=C/C(=O)NS(=O)(=O)c3cccs3)cccc12` [Compound P086] gave an IC50 of under 1 µM. In the case of `O=C(C=Cc1cccc2c1N(Cc1ccc3ccccc3c1)C(=O)C2)NS(=O)(=O)c1cc(Cl)c(Cl)s1` [Compound P179], the IC50 is reported as under 1 µM. For `O=C(COc1cccc2c1N(Cc1ccc(OC(F)(F)F)cc1)C(=O)CO2)NS(=O)(=O)c1cccs1` [Compound P027], the IC50 was 1 to 10 µM. For `CC12CCCC(C=CC(=O)NS(=O)(=O)c3ccc(OC(F)(F)F)cc3)=C1N(Cc1ccc3ccccc3c1)C(=O)C2` (stereo not drawn) [Compound P269], the IC50 was under 1 µM. `Cc1ccc(CN2C(=O)COc3cccc(OCC(=O)NS(=O)(=O)c4cccs4)c32)cc1C` [Compound P020] was tested, and the IC50 was 1 to 10 µM. `O=C(C=Cc1cccc2ccn(Cc3ccc(Cl)cc3Cl)c12)NS(=O)(=O)c1cc(Cl)c(Cl)s1` [Compound P129] gave an IC50 of under 1 µM. `CC12CCCC(C=CC(=O)NS(=O)(=O)c3ccc(F)c(F)c3)=C1N(Cc1ccc(Cl)cc1Cl)C(=O)C2` (stereo not drawn) [Compound P283] showed an IC50 of under 1 µM. Work on `O=C(COc1cccc2oc(=O)n(Cc3ccc4ccccc4c3)c12)NS(=O)(=O)c1cccs1` [Compound P046] yielded an IC50 of under 1 µM. With `Cn1cc(C=CC(=O)NS(=O)(=O)c2cc(F)c(F)cc2F)c2c(Oc3ccc(F)cc3F)cccc21` [Compound P324] the IC50 was under 1 µM. Compound `Cc1cn(Cc2cc(F)cc(F)c2)c2c(/C=C/C(=O)NS(=O)(=O)c3cc(Cl)c(Cl)s3)cccc12` [Compound P136] has an IC50 of under 1 µM. With `COc1ccc(S(=O)(=O)c2c[nH]c3cccc(OCC(=O)NS(=O)(=O)c4cc(Cl)c(Cl)s4)c23)cc1` [Compound P210] the IC50 was under 1 µM. For `Cn1cc(C=CC(=O)NS(=O)(=O)c2cc(Cl)c(Cl)s2)c2c(Oc3ccc(Cl)c(Cl)c3)cccc21` [Compound P290], the IC50 was under 1 µM. In the case of `CC1C(=O)N(Cc2ccc(Cl)cc2Cl)c2c(C=CC(=O)NS(=O)(=O)c3cccs3)cc(F)cc21` (stereo not drawn) [Compound P065], the IC50 is reported as under 1 µM.
